Results published in patent publication US8507533B2, “Glucagon receptor modulators” (Pfizer Inc., priority 2011, dated 2013).

Target: human glucagon receptor (Homo sapiens (Human), UniProt P47871)
Experiment: Glucagon cAMP Assay (Cisbio cAMP detection)
Format: cell-based
Details: CHOK1 cells stably transfected with the human glucagon receptor; block of glucagon induced cAMP production; Kb by modified Cheng-Prusoff equation
Method: The Cisbio cAMP detection assay is used to determine the ability of punitive glucagon antagonist to block glucagon induced cAMP production. Potential glucagon antagonists are re-suspended and diluted in 100% DMSO. Prior to use in the Glucagon cAMP assay 100×DMSO compound stocks are diluted 20× with DMEM-F12 media (Invitrogen) containing either 0.1% or 4% BSA. […] 2 μls of 5% DMSO or known glucagon antagonist are added to each plate to define the assay window. CHOK1 cells stably transfected with the human glucagon receptor are removed from culture flasks with cell dissociation buffer. Cell pellets are re-suspended, at a concentration of 8.3e^5 cells/ml in DMEM-F12 with or without 4% BSA and 200 uM IBMX. 6 μls of cell suspensions are added to the assay plates. Plates are incubated for 20 min at room temperature prior to the addition of a 100 μM challenge dose of glucagon. On a separate plate glucagon dose response curves are run to determine the EC50 of glucagon. After a 30 min room temperature incubation the reaction is terminated by the addition of lysis buffer containing the cAMP detection reagents. Plates are incubated for an additional 60 min at room temperature prior to being read on the Perkin Elmer fluorescent plate reader. Raw is converted to nM of cAMP produced based on a cAMP standard curve. Converted data is then analyzed using the Pfizer data analysis program. IC50 values are determined from the generated sigmoidal dose response curves. Kb values are calculated using a modified Cheng-Prusoff equation. N is the number of times the compound was assayed.

human glucagon receptor, sequence (P47871 26-477): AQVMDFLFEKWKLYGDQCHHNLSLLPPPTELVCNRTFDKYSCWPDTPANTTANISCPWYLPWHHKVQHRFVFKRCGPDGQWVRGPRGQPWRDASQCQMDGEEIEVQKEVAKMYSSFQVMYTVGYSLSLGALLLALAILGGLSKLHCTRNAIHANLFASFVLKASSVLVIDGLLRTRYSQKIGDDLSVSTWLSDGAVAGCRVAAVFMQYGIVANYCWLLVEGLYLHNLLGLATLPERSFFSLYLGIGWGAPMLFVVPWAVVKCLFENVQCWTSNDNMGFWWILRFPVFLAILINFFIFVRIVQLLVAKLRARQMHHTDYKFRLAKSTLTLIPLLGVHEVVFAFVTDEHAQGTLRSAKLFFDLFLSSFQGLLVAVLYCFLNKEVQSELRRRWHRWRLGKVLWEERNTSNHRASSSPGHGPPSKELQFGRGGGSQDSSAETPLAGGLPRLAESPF

| Kb | SMILES |
| --- | --- |
| 3530 nM | CCCC(Oc1ccc(-c2cnn(C)c2)cc1)c1ccc(C(=O)NCCC(=O)O)cc1 (racemic) [Example 54, (+/−)-3-(4-(1-(4-(1-methyl-1H-pyrazol-4-yl)phenoxy)butyl)benzamido)propanoic acid] |
| 3720 nM | CCCC(Oc1ccc(-c2cnn(C)c2C)cc1)c1ccc(C(=O)NCCC(=O)O)cc1 (racemic) [Example 55, (+/−)-3-(4-(1-(4-(1,5-dimethyl-1H-pyrazol-4-yl)phenoxy)butyl)benzamido)propanoic acid] |
| 4370 nM | CCCC(Oc1ccc(-c2cn[nH]c2)cc1)c1ccc(C(=O)NCCC(=O)O)cc1 (racemic) [Example 56, (+/−)-3-(4-(1-(4-(1H-pyrazol-4-yl)phenoxy)butyl)benzamido)propanoic acid] |
| 6100 nM | CCCC(Oc1ccc(-c2ccnn2C)cc1)c1ccc(C(=O)NCCC(=O)O)cc1 (racemic) [Example 57, (+/−)-3-(4-(1-(4-(1-methyl-1H-pyrazol-5-yl)phenoxy)butyl)benzamido)propanoic acid] |
| 7300 nM | CCCC(Oc1ccc(-c2c(C)nn(C)c2C)cc1)c1ccc(C(=O)NCCC(=O)O)cc1 (racemic) [Example 58, (+/−)-3-(4-(1-(4-(1,3,5-trimethyl-1H-pyrazol-4-yl)phenoxy)butyl)benzamido)propanoic acid] |
| 32.2 nM | CCCC(Nc1ccc(-n2cc(-c3ccccc3)cn2)nc1)c1ccc(C(=O)NCCC(=O)O)cc1 (racemic) [Example 62, (+/−)-3-(4-(1-(6-(4-phenyl-1H-pyrazol-1-yl)pyridine-3-ylamino)butyl)benzamido)propanoic acid] |
| 613 nM | CCCC(Nc1ccc(-n2cc(F)cn2)cc1)c1ccc(C(=O)NCCC(=O)O)cc1 (racemic) [Example 63, (+/−)-3-(4-(1-(4-(4-fluoro-1H-pyrazol-1-yl)phenylamino)butyl)benzamido)propanoic acid] |
| 494 nM | CC(C)CC(Nc1ccc(C(=O)NCCC(=O)O)cn1)c1ccc(-n2cc(C(F)(F)F)cn2)cc1 (racemic) [Example 64, (+/−)-3-(6-(3-methyl-1-(4-(4-(trifluoromethyl)-1H-pyrazol-1-yl)phenyl)butylamino)nicotinamido)propanoic acid] |
| 2880 nM | O=C(O)CCNC(=O)c1ccc(C(CC2CC2)Oc2ccc(-n3cc(C(F)(F)F)cn3)cc2)cc1 (racemic) [Example 65, (+/−)-3-(4-(2-cyclopropyl-1-(4-(4-(trifluoromethyl)-1H-pyrazol-1-yl)phenoxy)ethyl)benzamido)propanoic acid] |
| 1910 nM | CCCC(Oc1ccc(-n2ccc(C(F)(F)F)n2)cc1)c1ccc(C(=O)NCCC(=O)O)cc1 (racemic) [Example 70, (+/−)-3-(4-(1-(4-(3-(trifluoromethyl)-1H-pyrazol-1-yl)phenoxy)butyl)benzamido)propanoic acid] |
| 2120 nM | CC(C)(C)CC(Oc1ccc(-n2cc(C(F)(F)F)cn2)cc1)c1ccc(C(=O)NCCC(=O)O)cc1 (racemic) [Example 71, (+/−)-3-(4-(3,3-dimethyl-1-(4-(4-(trifluoromethyl)-1H-pyrazol-1-yl)phenoxy)butyl)benzamido)propanoic acid] |
| 2300 nM | CCCC(Oc1ccc(-n2cc(C)c(C(F)(F)F)n2)cc1)c1ccc(C(=O)NCCC(=O)O)cc1 (racemic) [Example 72, (+/−)-3-(4-(1-(4-(4-methyl-3-(trifluoromethyl)-1H-pyrazol-1-yl)phenoxy)butyl)benzamido)propanoic acid] |
| 2640 nM | CCCC(Oc1ccc(-n2cnc(C(F)(F)F)n2)cc1)c1ccc(C(=O)NCCC(=O)O)cc1 (racemic) [Example 73, (+/−)-3-(4-(1-(4-(3-(trifluoromethyl)-1H-1,2,4-triazol-1-yl)phenoxy)butyl)benzamido)propanoic acid] |
| 7710 nM | CCCC(Oc1ccc(-n2cc(C(F)(F)F)nc2C)cc1)c1ccc(C(=O)NCCC(=O)O)cc1 (racemic) [Example 75, (+/−)-3-(4-(1-(4-(2-methyl-4-(trifluoromethyl)-1H-imidazol-1-yl)phenoxy)butyl)benzamido)propanoic acid] |
| 4140 nM | CCCC(Oc1ccc(-n2cc(C(F)(F)F)cn2)cn1)c1ccc(C(=O)NCCC(=O)O)cc1 (racemic) [Example 85, (+/−)-3-(4-(1-(5-(4-(trifluoromethyl)-1H-pyrazol-1-yl)pyridine-2-yloxy)butyl)benzamido)propanoic acid] |
| 9390 nM | CCCC(Oc1ccc(-n2cnc(C(F)(F)F)c2)nc1)c1ccc(C(=O)NCCC(=O)O)cc1 (racemic) [Example 87, (+/−)-3-(4-(1-(6-(4-(trifluoromethyl)-1H-imidazol-1-yl)pyridine-3-yloxy)butyl)benzamido)propanoic acid] |
| > 2500 nM | CCCC(Oc1ccc(-n2cc3c(n2)CCC3)cc1)c1ccc(C(=O)NCCC(=O)O)cc1 (racemic) [Example 90, (+/−)-3-(4-(1-(4-(5,6-dihydrocyclopenta[c]pyrazol-2(4H)-yl)phenoxy)butyl)benzamido)propanoic acid] |
| 5600 nM | CCCC(Nc1ccc(-n2cc(C)nn2)cc1)c1ccc(C(=O)NCCC(=O)O)cc1 (racemic) [Example 92, (+/−)-3-(4-(1-(4-(4-methyl-1H-1,2,3-triazol-1-yl)phenylamino)butyl)benzamido)propanoic acid] |
| 3840 nM | CC(C)CC(Nc1ncc(C(=O)NCCC(=O)O)cn1)c1ccc(-n2cc(C(F)(F)F)cn2)cc1 (racemic) [Example 93, (+/−)-3-(2-(3-methyl-1-(4-(4-(trifluoromethyl)-1H-pyrazol-1-yl)phenyl)butylamino)pyrimidine-5-carboxamido)propanoic acid] |
| 57.5 nM | O=C(O)CCNC(=O)c1ccc(C(Nc2ccc(-n3cc(C(F)(F)F)cn3)nc2)C2CCCC2)cc1 (racemic) [Example 94, (+/−)-3-(4-(cyclopentyl(6-(4-(trifluoromethyl)-1H-pyrazol-1-yl)pyridine-3-ylamino)methyl)benzamido)propanoic acid] |
| 376 nM | O=C(O)CCNC(=O)c1ccc(NC(c2ccc(-n3cc(C(F)(F)F)cn3)cc2)C2CCCCC2)nc1 (racemic) [Example 99] |
| 226 nM | CC(C)(C)CC(Nc1ccc(-n2cnc(C(F)(F)F)c2)nc1)c1ccc(C(=O)NCCC(=O)O)cc1 (racemic) [Example 100, (+/−)-3-(4-(3,3-dimethyl-1-(6-(4-(trifluoromethyl)-1H-imidazol-1-yl)pyridine-3-ylamino)butyl)benzamido)propanoic acid] |
| 3540 nM | Cc1cc(NC(CC(C)C)c2ccc(C(=O)NCCC(=O)O)cn2)cnc1-n1cc(C(F)(F)F)cn1 (racemic) [Example 102, (+/−)-3-(6-(3-methyl-1-(5-methyl-6-(4-(trifluoromethyl)-1H-pyrazol-1-yl)pyridin-3-ylamino)butyl)nicotinamido)propanoic acid] |
| 32.8 nM | O=C(O)CCNC(=O)c1ccc(C(Nc2ccc(-n3cc(C(F)(F)F)cn3)nc2)C2CCCC2)cc1 (single isomer, unassigned) [Example 95, 3-(4-(cyclopentyl(6-(4-(trifluoromethyl)-1H-pyrazol-1-yl)pyridine-3-ylamino)methyl)benzamido)propanoic acid] |
| 871 nM | O=C(O)CCNC(=O)c1ccc(C(Nc2ccc(-n3cc(C(F)(F)F)cn3)nc2)C2CCCC2)cc1 (single isomer, unassigned) [Example 96, 3-(4-(cyclopentyl(6-(4-(trifluoromethyl)-1H-pyrazol-1-yl)pyridine-3-ylamino)methyl)benzamido)propanoic acid] |
| 227 nM | Cc1cc(-n2cc(C(F)(F)F)cn2)ccc1C(Nc1ccc(C(=O)NCCC(=O)O)cn1)C1CCCCC1 (single isomer, unassigned) [Example 117, 3-(6-(cyclohexyl(2-methyl-4-(4-(trifluoromethyl)-1H-pyrazol-1-yl)phenyl)methylamino)nicotinamido)propanoic acid] |
| 1020 nM | Cc1cc(-n2cc(C(F)(F)F)cn2)ccc1C(Nc1ccc(C(=O)NCCC(=O)O)cn1)C1CCCCC1 (single isomer, unassigned) [Example 118, 3-(6-(cyclohexyl(2-methyl-4-(4-(trifluoromethyl)-1H-pyrazol-1-yl)phenyl)methylamino)nicotinamido)propanoic acid] |
| 15500 nM | CCCC(Nc1ccc(-n2cnc(C(F)(F)F)c2)nc1)c1ccc(C(=O)NCCC(=O)O)cc1 (single isomer, unassigned; isomer 1) [Example 10, 3-(4-(1-(6-(4-(trifluoromethyl)-1H-imidazol-1-yl)yridine-3-ylamino)butyl)benzamido)propanoic acid, Isomer 1] |
| 612 nM | CCCC(Nc1ccc(-n2cnc(C(F)(F)F)c2)nc1)c1ccc(C(=O)NCCC(=O)O)cc1 (single isomer, unassigned; isomer 2) [Example 11, 3-(4-(1-(6-(4-(trifluoromethyl)-1H-imidazol-1-yl)yridine-3-ylamino)butyl)benzamido)propanoic acid, Isomer 2] |
| 75 nM | CCCC(Oc1ccc(-n2cc(-c3ccccc3)cn2)nc1)c1ccc(C(=O)NCCC(=O)O)cc1 (stereo not drawn) [Example 133] |
